Source: ChEMBL document CHEMBL3885881, “DrugMatrix”

Species: Rattus norvegicus
Experiment: DrugMatrix - Regimen: Daily Repeat
Assay type: toxicity, organism-based, Sprague-Dawley
Design: regimen Daily Repeat, gender Male, age 6-8 weeks
Conditions: in vivo, po, route oral GAVAGE, vehicle 100 % WATER; for ABSOLUTE BASOPHIL / ABSOLUTE EOSINOPHIL / ABSOLUTE LYMPHOCYTE / ABSOLUTE MONOCYTE / ABSOLUTE SEGMENTED NEUTROPHIL / BASOPHIL / EOSINOPHIL / ERYTHROCYTE COUNT / HEMATOCRIT / HEMOGLOBIN / LEUKOCYTE COUNT / LYMPHOCYTE / MEAN CORPUSCULAR HEMOGLOBIN / MEAN CORPUSCULAR HEMOGLOBIN CONCENTRATION / MEAN CORPUSCULAR VOLUME / MONOCYTE / NEUTROPHIL / NUCLEATED RED BLOOD CELLS / PLATELET COUNT: tissue Blood; for ALANINE AMINOTRANSFERASE / ALBUMIN / ALKALINE PHOSPHATASE / ASPARTATE AMINOTRANSFERASE / BLOOD UREA NITROGEN / CARBON DIOXIDE / CHLORIDE / CHOLESTEROL / CREATINE PHOSPHOKINASE / CREATININE / GLUCOSE / LACTATE DEHYDROGENASE / LIPASE / PHOSPHORUS / POTASSIUM / SODIUM / TOTAL BILIRUBIN / TOTAL PROTEIN / URIC ACID: tissue Plasma
[1] = 6 mg/kg, 120 h, dose level Low, time 5 day
[2] = 414 mg/kg, 72 h, dose level High, time 3 day
[3] = 414 mg/kg, 120 h, dose level High, time 5 day

`CN1CCN(C(=O)OC2c3nccnc3C(=O)N2c2ccc(Cl)cn2)CC1` (centres undefined) [ZOPICLONE] was tested, and the “ABSOLUTE BASOPHIL” value [1] was 0 CELLS/uL, the “ABSOLUTE EOSINOPHIL” value [1] was 89.67 CELLS/uL and the “ABSOLUTE LYMPHOCYTE” value [1] was 11847.67 CELLS/uL. For the same compound, the “ABSOLUTE MONOCYTE” value [1] was 80.67 CELLS/uL, the “ABSOLUTE SEGMENTED NEUTROPHIL” value [1] was 982 CELLS/uL and the BASOPHIL [1] was 0%. For the same compound, the EOSINOPHIL [1] was 0.67%, the “ERYTHROCYTE COUNT” value [1] was 6 x10E6/uL and the HEMATOCRIT [1] was 36.37%. For the same compound, the HEMOGLOBIN [1] was 14 G/DL, the “LEUKOCYTE COUNT” value [1] was 13 x10E3/uL and the LYMPHOCYTE [1] was 91%. For the same compound, the “MEAN CORPUSCULAR HEMOGLOBIN” value [1] was 23.3 pg, the “MEAN CORPUSCULAR HEMOGLOBIN CONCENTRATION” value [1] was 38.5 G/DL and the “MEAN CORPUSCULAR VOLUME” value [1] was 60.6 fL. The MONOCYTE [1] was 0.67%, the NEUTROPHIL [1] was 7.67% and the “NUCLEATED RED BLOOD CELLS” value [1] was 0 /100WBC. For the same compound, the “PLATELET COUNT” value [1] was 827.33 x10E3/uL, the “ALANINE AMINOTRANSFERASE” value [1] was 51.67 u/L and the ALBUMIN [1] was 4.07 G/DL. For the same compound, the “ALKALINE PHOSPHATASE” value [1] was 386.67 u/L, the “ASPARTATE AMINOTRANSFERASE” value [1] was 91.33 u/L and the “BLOOD UREA NITROGEN” value [1] was 15 mg/dL. The “CARBON DIOXIDE” value [1] was 32 mmol/L, the CHLORIDE [1] was 101.67 MEQ/L and the CHOLESTEROL [1] was 61.33 mg/dL. The “CREATINE PHOSPHOKINASE” value [1] was 428.33 u/L, the CREATININE [1] was 0.13 mg/dL and the GLUCOSE [1] was 151.33 mg/dL. For the same compound, the “LACTATE DEHYDROGENASE” value [1] was 157.67 u/L, the LIPASE [1] was 10 u/L and the PHOSPHORUS [1] was 12.2 mg/dL. For the same compound, the POTASSIUM [1] was 6.32 MEQ/L, the SODIUM [1] was 146.2 MEQ/L and the “TOTAL BILIRUBIN” value [1] was 0.17 mg/dL. The “TOTAL PROTEIN” value [1] was 6.03 G/DL, the “URIC ACID” value [1] was 1.17 mg/dL and the “ABSOLUTE BASOPHIL” value [2] was 0 CELLS/uL. The “ABSOLUTE EOSINOPHIL” value [2] was 54 CELLS/uL, the “ABSOLUTE LYMPHOCYTE” value [2] was 11865 CELLS/uL and the “ABSOLUTE MONOCYTE” value [2] was 279 CELLS/uL. The “ABSOLUTE SEGMENTED NEUTROPHIL” value [2] was 4168.67 CELLS/uL, the BASOPHIL [2] was 0% and the EOSINOPHIL [2] was 0.33%. The “ERYTHROCYTE COUNT” value [2] was 5.87 x10E6/uL, the HEMATOCRIT [2] was 36.97% and the HEMOGLOBIN [2] was 14.13 G/DL. The “LEUKOCYTE COUNT” value [2] was 16.37 x10E3/uL, the LYMPHOCYTE [2] was 72.33% and the “MEAN CORPUSCULAR HEMOGLOBIN” value [2] was 24.1 pg. The “MEAN CORPUSCULAR HEMOGLOBIN CONCENTRATION” value [2] was 38.23 G/DL, the “MEAN CORPUSCULAR VOLUME” value [2] was 63.03 fL and the MONOCYTE [2] was 1.67%. The NEUTROPHIL [2] was 25.67%, the “NUCLEATED RED BLOOD CELLS” value [2] was 0 /100WBC and the “PLATELET COUNT” value [2] was 1420.33 x10E3/uL. For the same compound, the “ALANINE AMINOTRANSFERASE” value [2] was 76 u/L, the ALBUMIN [2] was 3.9 G/DL and the “ALKALINE PHOSPHATASE” value [2] was 416.33 u/L. The “ASPARTATE AMINOTRANSFERASE” value [2] was 81 u/L, the “BLOOD UREA NITROGEN” value [2] was 15.67 mg/dL and the “CARBON DIOXIDE” value [2] was 31.67 mmol/L. The CHLORIDE [2] was 101.33 MEQ/L, the CHOLESTEROL [2] was 79 mg/dL and the “CREATINE PHOSPHOKINASE” value [2] was 490.67 u/L. For the same compound, the CREATININE [2] was 0.17 mg/dL, the GLUCOSE [2] was 142.33 mg/dL and the “LACTATE DEHYDROGENASE” value [2] was 208 u/L. It also gave an LIPASE [2] of 10.67 u/L, a PHOSPHORUS [2] of 9.37 mg/dL and a POTASSIUM [2] of 5.75 MEQ/L. For the same compound, the SODIUM [2] was 145.07 MEQ/L, the “TOTAL BILIRUBIN” value [2] was 0.13 mg/dL and the “TOTAL PROTEIN” value [2] was 5.97 G/DL. The “URIC ACID” value [2] was 0.43 mg/dL, the “ABSOLUTE BASOPHIL” value [3] was 0 CELLS/uL and the “ABSOLUTE EOSINOPHIL” value [3] was 34 CELLS/uL. The “ABSOLUTE LYMPHOCYTE” value [3] was 13648.67 CELLS/uL, the “ABSOLUTE MONOCYTE” value [3] was 500 CELLS/uL and the “ABSOLUTE SEGMENTED NEUTROPHIL” value [3] was 2484 CELLS/uL. For the same compound, the BASOPHIL [3] was 0%, the EOSINOPHIL [3] was 0.33% and the “ERYTHROCYTE COUNT” value [3] was 6.38 x10E6/uL. For the same compound, the HEMATOCRIT [3] was 38.3%, the HEMOGLOBIN [3] was 14.7 G/DL and the “LEUKOCYTE COUNT” value [3] was 16.67 x10E3/uL. The LYMPHOCYTE [3] was 81%, the “MEAN CORPUSCULAR HEMOGLOBIN” value [3] was 23.07 pg and the “MEAN CORPUSCULAR HEMOGLOBIN CONCENTRATION” value [3] was 38.37 G/DL. The “MEAN CORPUSCULAR VOLUME” value [3] was 60.13 fL, the MONOCYTE [3] was 3% and the NEUTROPHIL [3] was 15.67%. The “NUCLEATED RED BLOOD CELLS” value [3] was 0 /100WBC, the “PLATELET COUNT” value [3] was 1154.67 x10E3/uL and the “ALANINE AMINOTRANSFERASE” value [3] was 76.67 u/L. The ALBUMIN [3] was 3.57 G/DL, the “ALKALINE PHOSPHATASE” value [3] was 365 u/L and the “ASPARTATE AMINOTRANSFERASE” value [3] was 80.33 u/L. For the same compound, the “BLOOD UREA NITROGEN” value [3] was 15.33 mg/dL, the “CARBON DIOXIDE” value [3] was 30.33 mmol/L and the CHLORIDE [3] was 102 MEQ/L. The CHOLESTEROL [3] was 68 mg/dL, the “CREATINE PHOSPHOKINASE” value [3] was 261.33 u/L and the CREATININE [3] was 0.22 mg/dL. The GLUCOSE [3] was 118.67 mg/dL, the “LACTATE DEHYDROGENASE” value [3] was 110.33 u/L and the LIPASE [3] was 11 u/L. It also gave a PHOSPHORUS [3] of 11.23 mg/dL, a POTASSIUM [3] of 6.36 MEQ/L and an SODIUM [3] of 146.63 MEQ/L. The “TOTAL BILIRUBIN” value [3] was 0.1 mg/dL, the “TOTAL PROTEIN” value [3] was 5.73 G/DL and the “URIC ACID” value [3] was 1.53 mg/dL.
